Measured values as given in patent US8877208B2 (priority 2008, dated 2014).
“Also recorded” adds a separate entry of the source.

Tested on: virus

TRITON-X100
biocidal activity against virus (ability to inactivate a virus): less biocidal activity; also recorded: less ability to inactivate a virus
